From EP3046573B1, “AMYLIN ANALOGUES” (Zealand Pharma A/S, priority 2013, dated 2015)
Numbered stars: 1 amine (or outer) side, 2 acyl side, 3 side chain; on linkers, the order of the positions; unused ones are H or OH. Bridge positions count the residues as written; N and C are the ends. Square brackets hold non-standard residues; d marks the D form. Peptide text beside a SMILES is read from it. * marks the point of attachment. C20 diacid = O=C(O)CCCCCCCCCCCCCCCCCCC(=O)*; γGlu = O=C(O)[C@H](CCC(=O)[*:2])N[*:1]; NMeI = CC[C@H](C)[C@H](NC)C(=O)O; Aze = O=C(O)[C@@H]1CCN1; Sar = CNCC(=O)O

Assays:
[1] = Assessment of physical stability: fibril formation detected with Thioflavin T (ThT), lag-time; type: physicochemical; details: 1 mg/ml peptide, 40 µM ThT, FND = Fibrillation not detected; for Fibrillation lag time (hours) pH 4.0 (Ac): 50 mM acetate buffer pH 4.0, 96 hours at 40°C; for Fibrillation lag time (hours) pH 7.0 (His): 50 mM histidine buffer pH 7.0, 96 hours at 40°C; for Fibrillation lag time (hours) pH 7.0 (Ph): 50 mM phosphate buffer pH 7.0, 96 hours at 40°C
Experimental: Solutions containing (i) 1 mg/ml of test peptide, 40 µM ThT and 50 mM phosphate (Ph) buffer (pH 7.0), (ii) 1 mg/ml of test peptide, 40 µM ThT and 50 mM histidine (His) buffer (pH 7.0), and (iii) 1 mg/ml of test peptide, 40 µM ThT and 50 mM acetate (Ac) buffer (pH 4.0), were loaded in a 96-well black fluorescence plate (clear bottom) in triplicate. Data were collected at fixed intervals of 10 min, each preceded by 300 s of automixing (agitation), over a period of 96 hours at 40° C. Physical stability, expressed as lag-time of fibril formation (in hours), was defined as the intersection between two linear regressions representing the initial stable phase and the growth phase.

Sprague Dawley (SD) rats = experiment: Acute food intake and body weight in normal Sprague Dawley rats; type: in vivo; details: vehicle-corrected, dose 30 nmol/kg sc, once; for Body weight loss (%) after 96 hours: mean ± SEM, n = 8
Experimental: Sprague Dawley (SD) rats were obtained from Taconic A/S, Denmark. The animals arrived at least 7 days before the study start to allow acclimatization to experimental conditions. From arrival and throughout the study, the rats were housed in groups of 2 (n = 2) in a light-, temperature- and humidity-controlled room (reversed 12/12 h light/dark cycle: lights turned off during day-time and on during night-time; temperature 20-22°C; relative humidity 50-80%). Animals had access ad libitum to food (Altromin™ 1324, Brogaarden A/S, Gentofte, Denmark) and water (domestic quality tap water with citric acid added to pH ∼ 3.6) during the entire study. Stratification of rats was based on body weight (BW) on a cage-by-cage basis; mean BWs per cage were used as the basis for pairing four cages together in a group (n = 8 per group). A vehicle group and positive control group were included in each set of tests. Rats were dosed subcutaneously (sc) once in the morning immediately before turning off the lights, using a body weight-corrected dose of peptide (30 nmol/kg). Dosing volume was 5 ml/kg. Food intake was recorded manually at t = 0 (pre-dose) and at t = 4, 7, 10, 24, 48, 72 and 96 hours after dosing. Body weight was measured daily.
Statistical analyses on body weight were performed using GraphPad™ Prism version 5. The measured parameters were compared using unpaired t tests. Differences were considered statistically significant at p < 0.05. Data are means ± SEM; n =8.

CC[C@H](C)[C@@H](C(=O)N[C@@H](CC(C)C)C(=O)N[C@@H](CO)C(=O)N[C@@H](CO)C(=O)N[C@H](C(=O)N[C@@H](CC(N)=O)C(=O)N[C@H](C(=O)NCC(=O)N[C@@H](CO)C(=O)N[C@@H](CC(N)=O)C(=O)N[C@H](C(=O)N1CC[C@H]1C(N)=O)[C@@H](C)O)C(C)C)[C@@H](C)O)N(C)C(=O)[C@H](C)NC(=O)CN(C)C(=O)[C@H](Cc1ccccc1)NC(=O)[C@H](CC(N)=O)NC(=O)[C@H](CC(N)=O)NC(=O)[C@H](CO)NC(=O)[C@H](CO)NC(=O)[C@H](CCCNC(=N)N)NC(=O)[C@H](Cc1c[nH]cn1)NC(=O)[C@H](CC(C)C)NC(=O)[C@H](Cc1ccccc1)NC(=O)[C@H](CCC(=O)O)NC(=O)[C@H](C)NC(=O)[C@H](CC(C)C)NC(=O)[C@H](CCCNC(=N)N)NC(=O)[C@H](CCC(N)=O)NC(=O)[C@@H](NC(=O)[C@H](C)NC(=O)[C@@H]1CSSC[C@H](NC(=O)[C@H](CCCNC(=N)N)NC(=O)CC[C@H](NC(=O)CCCCCCCCCCCCCCCCCCC(=O)O)C(=O)O)C(=O)N[C@@H](CC(N)=O)C(=O)N[C@@H]([C@@H](C)O)C(=O)N[C@@H](C)C(=O)N[C@@H]([C@@H](C)O)C(=O)N1)[C@@H](C)O [Compound 107, [19CD]-isoGlu-RC()NTATC()ATQRLAEFLHRSSNNF-Gly(Me)-A-Ile(Me)-LSSTNVGSNT-Aze-NH2] ({C20 diacid-γGlu}-RCNTATCATQRLAEFLHRSSNNF[Sar]A[NMeI]LSSTNVGSNT[Aze]-NH2; disulfide 2-7)
Fibrillation lag time (hours) pH 4.0 (Ac) [1]: FND
Fibrillation lag time (hours) pH 7.0 (His) [1]: FND
Fibrillation lag time (hours) pH 7.0 (Ph) [1]: 16 hours
Food intake inhibition (%) after 48 hours (Sprague Dawley (SD) rats): 83%
Body weight loss (%) after 96 hours (Sprague Dawley (SD) rats): 6 ± 1.5%

CC[C@H](C)[C@@H](C(=O)N[C@@H](CC(C)C)C(=O)N[C@@H](CO)C(=O)N[C@@H](CO)C(=O)N[C@H](C(=O)N[C@@H](CCC(=O)O)C(=O)N[C@H](C(=O)NCC(=O)N[C@@H](CO)C(=O)N[C@@H](CCC(=O)O)C(=O)N[C@H](C(=O)N1CCC[C@H]1C(N)=O)[C@@H](C)O)C(C)C)[C@@H](C)O)N(C)C(=O)[C@H](C)NC(=O)CN(C)C(=O)[C@H](Cc1ccccc1)NC(=O)[C@H](CO)NC(=O)[C@H](CO)NC(=O)[C@H](CO)NC(=O)[C@H](CO)NC(=O)[C@H](CCCNC(=N)N)NC(=O)[C@H](Cc1c[nH]cn1)NC(=O)[C@H](CC(C)C)NC(=O)[C@H](Cc1ccccc1)NC(=O)[C@H](CCC(=O)O)NC(=O)[C@H](C)NC(=O)[C@H](CC(C)C)NC(=O)[C@H](CCCNC(=N)N)NC(=O)[C@H](CC(=O)O)NC(=O)[C@@H](NC(=O)[C@H](C)NC(=O)[C@@H]1CSSC[C@H](NC(=O)[C@H](CCCNC(=N)N)NC(=O)CC[C@H](NC(=O)CCCCCCCCCCCCCCCCCCC(=O)O)C(=O)O)C(=O)N[C@@H](CC(N)=O)C(=O)N[C@@H]([C@@H](C)O)C(=O)N[C@@H](C)C(=O)N[C@@H]([C@@H](C)O)C(=O)N1)[C@@H](C)O [Compound 120, [19CD]-isoGlu-RC()NTATC()ATDRLAEFLHRSSSSF-Gly(Me)-A-Ile(Me)-LSSTEVGSETP-NH2] ({C20 diacid-γGlu}-RCNTATCATDRLAEFLHRSSSSF[Sar]A[NMeI]LSSTEVGSETP-NH2; disulfide 2-7)
Fibrillation lag time (hours) pH 4.0 (Ac) [1]: FND
Fibrillation lag time (hours) pH 7.0 (His) [1]: FND
Fibrillation lag time (hours) pH 7.0 (Ph) [1]: FND
Body weight loss (%) after 96 hours (Sprague Dawley (SD) rats): 12 ± 1.8%

CC[C@H](C)[C@@H](C(=O)N[C@@H](CC(C)C)C(=O)N[C@@H](CO)C(=O)N[C@@H](CO)C(=O)N[C@H](C(=O)N[C@@H](CCC(=O)O)C(=O)N[C@H](C(=O)NCC(=O)N[C@@H](CO)C(=O)N[C@@H](CCC(=O)O)C(=O)N[C@H](C(=O)N1CCC[C@H]1C(N)=O)[C@@H](C)O)C(C)C)[C@@H](C)O)N(C)C(=O)[C@H](C)NC(=O)CN(C)C(=O)[C@H](Cc1ccccc1)NC(=O)[C@H](CO)NC(=O)[C@H](CO)NC(=O)[C@H](CO)NC(=O)[C@H](CO)NC(=O)[C@H](CCCNC(=N)N)NC(=O)[C@H](Cc1c[nH]cn1)NC(=O)[C@H](CC(C)C)NC(=O)[C@H](Cc1ccccc1)NC(=O)[C@H](CCC(=O)O)NC(=O)[C@H](C)NC(=O)[C@H](CC(C)C)NC(=O)[C@H](CCCNC(=N)N)NC(=O)[C@H](CCC(=O)O)NC(=O)[C@@H](NC(=O)[C@H](C)NC(=O)[C@@H]1CSSC[C@H](NC(=O)[C@H](CCCNC(=N)N)NC(=O)CC[C@H](NC(=O)CCCCCCCCCCCCCCCCCCC(=O)O)C(=O)O)C(=O)N[C@@H](CCC(=O)O)C(=O)N[C@@H]([C@@H](C)O)C(=O)N[C@@H](C)C(=O)N[C@@H]([C@@H](C)O)C(=O)N1)[C@@H](C)O [Compound 134, [19CD]-isoGlu-RC()ETATC()ATERLAEFLHRSSSSF-Gly(Me)-A-Ile(Me)-LSSTEVGSETP-NH2] ({C20 diacid-γGlu}-RCETATCATERLAEFLHRSSSSF[Sar]A[NMeI]LSSTEVGSETP-NH2; disulfide 2-7)
Fibrillation lag time (hours) pH 4.0 (Ac) [1]: FND
Fibrillation lag time (hours) pH 7.0 (His) [1]: FND
Fibrillation lag time (hours) pH 7.0 (Ph) [1]: FND
Food intake inhibition (%) after 48 hours (Sprague Dawley (SD) rats): 27%
Body weight loss (%) after 96 hours (Sprague Dawley (SD) rats): 4 ± 3.1 %

CC[C@H](C)[C@@H](C(=O)N[C@@H](CC(C)C)C(=O)N[C@@H](CO)C(=O)N[C@@H](CO)C(=O)N[C@H](C(=O)N[C@@H](CCC(=O)O)C(=O)N[C@H](C(=O)NCC(=O)N[C@@H](CO)C(=O)N[C@@H](CCC(=O)O)C(=O)N[C@H](C(=O)N1CCC[C@H]1C(N)=O)[C@@H](C)O)C(C)C)[C@@H](C)O)N(C)C(=O)[C@H](C)NC(=O)CN(C)C(=O)[C@H](Cc1ccccc1)NC(=O)[C@H](CO)NC(=O)[C@H](CO)NC(=O)[C@H](CCCNC(=N)N)NC(=O)[C@H](Cc1c[nH]cn1)NC(=O)[C@H](CC(C)C)NC(=O)[C@H](Cc1ccccc1)NC(=O)[C@H](CCC(=O)O)NC(=O)[C@H](C)NC(=O)[C@H](CC(C)C)NC(=O)[C@H](CCCNC(=N)N)NC(=O)[C@H](CCC(=O)O)NC(=O)[C@@H](NC(=O)[C@H](C)NC(=O)[C@@H]1CSSC[C@H](NC(=O)[C@H](Cc2c[nH]c3ccccc23)NC(=O)CC[C@H](NC(=O)CCCCCCCCCCCCCCCCCCC(=O)O)C(=O)O)C(=O)NCC(=O)N[C@@H]([C@@H](C)O)C(=O)N[C@@H](C)C(=O)N[C@@H]([C@@H](C)O)C(=O)N1)[C@@H](C)O [Compound 161, [19CD]-isoGlu-WC()GTATC()ATERLAEFLHRSSF-Gly(Me)-A-Ile(Me)-LSSTEVGSETP-NH2] ({C20 diacid-γGlu}-WCGTATCATERLAEFLHRSSF[Sar]A[NMeI]LSSTEVGSETP-NH2; disulfide 2-7)
Fibrillation lag time (hours) pH 4.0 (Ac) [1]: FND
Fibrillation lag time (hours) pH 7.0 (His) [1]: FND
Fibrillation lag time (hours) pH 7.0 (Ph) [1]: FND
Food intake inhibition (%) after 48 hours (Sprague Dawley (SD) rats): 99%
Body weight loss (%) after 96 hours (Sprague Dawley (SD) rats): 10 ± 2.7%
